Data taken from ChEMBL document CHEMBL1201862, “PubChem BioAssay data set” (2004).
Activity calls are given as the source filed them.

Assays:
HEK293 [1] = test: cells; format: functional, cell-based; details: Homo sapiens
[2] = biological target: Nuclear receptor subfamily 5 group A member 2 (Homo sapiens, UniProt O00482); format: functional, cell-based;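 also: HEK293T cells transfected with LRH-1 and a StAR promoter luciferase reporter; potency for inhibitors that lower LRH-1 driven reporter light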
Chain of Nuclear receptor subfamily 5 group A member 2 (O00482 whole entry): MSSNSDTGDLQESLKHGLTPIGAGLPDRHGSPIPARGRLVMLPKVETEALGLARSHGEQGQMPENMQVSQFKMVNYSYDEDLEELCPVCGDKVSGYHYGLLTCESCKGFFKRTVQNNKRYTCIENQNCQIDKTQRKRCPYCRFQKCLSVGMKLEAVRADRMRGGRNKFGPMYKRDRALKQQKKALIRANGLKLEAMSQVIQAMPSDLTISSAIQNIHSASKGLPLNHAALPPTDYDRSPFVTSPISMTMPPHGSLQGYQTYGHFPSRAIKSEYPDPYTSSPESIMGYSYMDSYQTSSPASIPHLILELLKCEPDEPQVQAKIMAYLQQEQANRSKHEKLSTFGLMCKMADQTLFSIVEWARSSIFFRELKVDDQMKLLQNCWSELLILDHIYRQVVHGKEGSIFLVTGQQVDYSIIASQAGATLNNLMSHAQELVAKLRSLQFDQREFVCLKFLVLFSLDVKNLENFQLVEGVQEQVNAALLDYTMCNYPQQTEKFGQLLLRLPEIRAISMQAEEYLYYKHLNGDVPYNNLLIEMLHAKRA

[3] = biological target: T1, Sentrin-specific protease 7 (Homo sapiens, UniProt Q9BQF6); format: functional;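 also: Luminescence-based dose-response confirmation of ultra-high-throughput screening hits, measuring inhibition of SENP7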
T1 sequence (Q9BQF6 whole entry): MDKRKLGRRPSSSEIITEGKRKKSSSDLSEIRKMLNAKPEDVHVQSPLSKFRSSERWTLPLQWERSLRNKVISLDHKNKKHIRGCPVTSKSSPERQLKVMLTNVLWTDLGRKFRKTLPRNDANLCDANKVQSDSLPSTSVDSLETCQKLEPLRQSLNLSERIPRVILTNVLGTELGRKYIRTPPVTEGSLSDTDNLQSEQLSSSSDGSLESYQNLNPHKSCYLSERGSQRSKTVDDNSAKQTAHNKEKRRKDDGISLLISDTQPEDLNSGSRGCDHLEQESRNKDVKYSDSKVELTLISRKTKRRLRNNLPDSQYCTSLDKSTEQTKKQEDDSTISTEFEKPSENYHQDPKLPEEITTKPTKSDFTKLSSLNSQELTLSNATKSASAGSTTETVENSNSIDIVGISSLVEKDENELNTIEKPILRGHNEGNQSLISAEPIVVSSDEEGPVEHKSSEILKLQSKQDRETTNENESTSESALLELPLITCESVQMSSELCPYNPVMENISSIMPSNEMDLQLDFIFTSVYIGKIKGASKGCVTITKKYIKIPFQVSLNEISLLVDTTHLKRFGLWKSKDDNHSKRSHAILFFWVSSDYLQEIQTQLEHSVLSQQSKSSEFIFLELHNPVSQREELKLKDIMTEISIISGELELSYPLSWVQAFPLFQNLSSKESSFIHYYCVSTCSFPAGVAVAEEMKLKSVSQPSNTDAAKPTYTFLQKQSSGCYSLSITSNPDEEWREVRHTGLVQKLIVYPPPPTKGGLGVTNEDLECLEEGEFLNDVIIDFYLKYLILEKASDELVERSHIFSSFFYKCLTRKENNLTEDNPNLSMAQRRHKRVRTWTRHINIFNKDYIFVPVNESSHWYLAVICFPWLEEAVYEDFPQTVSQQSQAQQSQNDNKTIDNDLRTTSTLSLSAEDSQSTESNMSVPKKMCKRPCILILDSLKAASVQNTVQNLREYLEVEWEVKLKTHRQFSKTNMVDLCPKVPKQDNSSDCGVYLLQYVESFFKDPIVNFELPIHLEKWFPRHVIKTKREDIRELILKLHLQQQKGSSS

HEK293 [4] = test: inhibition of NOD1-driven NF-kB reporter – cell-based, luminescence, uHTS, primary screen (AID 1578); format: functional; details: Homo sapiens
HEK293 [5] = test: NOD2 signaling inhibitors in MDP-stimulated cells, cell-based, uHTS, luminescence (AID 2001); format: functional; details: Homo sapiens
cells = format: functional
HEK293 [6] = test: cells; format: functional, cell-based; details: Homo sapiens; remark: listed apart in the source
[7] = THP-1 cell cytotoxicity, dose response, cytotoxicity control for non-replicating M. tuberculosis project (AID 489025); format: functional
[8] = biological target: T2, Sentrin-specific protease 8 (Homo sapiens, UniProt Q96LD8); format: functional;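 also: luminescence read-out of SENP8 inhibition, dose-response confirmation following an ultra-high-throughput screen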
T2 sequence (Q96LD8 whole entry): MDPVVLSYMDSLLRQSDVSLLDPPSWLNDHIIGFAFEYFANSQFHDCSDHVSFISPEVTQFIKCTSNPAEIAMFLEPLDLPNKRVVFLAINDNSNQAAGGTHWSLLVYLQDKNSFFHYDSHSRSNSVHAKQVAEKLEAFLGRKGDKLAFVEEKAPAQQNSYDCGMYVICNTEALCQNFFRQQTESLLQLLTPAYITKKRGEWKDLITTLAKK

Steroidogenic factor 1 = Steroidogenic factor 1 (Homo sapiens, UniProt Q13285); test: Counterscreen for inverse agonists of the liver receptor homolog-1 (LRH-1; NR5A2): Luminescence-based cell-based high throughput dose response assay to identify inverse agonists of the Steroidogenic Factor 1 Nuclear Receptor (SF1; NR5A1).; format: functional
Chain of Steroidogenic factor 1 (Q13285 whole entry): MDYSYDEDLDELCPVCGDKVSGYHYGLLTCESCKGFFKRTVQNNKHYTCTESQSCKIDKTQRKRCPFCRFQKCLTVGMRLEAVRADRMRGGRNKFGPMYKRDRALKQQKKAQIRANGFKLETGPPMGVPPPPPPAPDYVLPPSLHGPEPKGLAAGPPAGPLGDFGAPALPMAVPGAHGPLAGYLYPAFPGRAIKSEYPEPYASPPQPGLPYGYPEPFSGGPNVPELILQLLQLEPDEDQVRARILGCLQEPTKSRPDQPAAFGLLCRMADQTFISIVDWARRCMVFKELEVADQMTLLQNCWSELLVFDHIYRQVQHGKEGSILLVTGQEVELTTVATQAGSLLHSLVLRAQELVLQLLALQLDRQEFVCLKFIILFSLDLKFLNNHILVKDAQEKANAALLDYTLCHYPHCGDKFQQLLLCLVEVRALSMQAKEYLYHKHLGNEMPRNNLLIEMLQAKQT

[9] = biological target: T3, Sentrin-specific protease 6 (Homo sapiens, UniProt Q9GZR1); format: functional;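 also: Luminescence-based dose-response confirmatory assay of SENP6 inhibition, following up an ultra-high-throughput screen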
T3 sequence (Q9GZR1 whole entry): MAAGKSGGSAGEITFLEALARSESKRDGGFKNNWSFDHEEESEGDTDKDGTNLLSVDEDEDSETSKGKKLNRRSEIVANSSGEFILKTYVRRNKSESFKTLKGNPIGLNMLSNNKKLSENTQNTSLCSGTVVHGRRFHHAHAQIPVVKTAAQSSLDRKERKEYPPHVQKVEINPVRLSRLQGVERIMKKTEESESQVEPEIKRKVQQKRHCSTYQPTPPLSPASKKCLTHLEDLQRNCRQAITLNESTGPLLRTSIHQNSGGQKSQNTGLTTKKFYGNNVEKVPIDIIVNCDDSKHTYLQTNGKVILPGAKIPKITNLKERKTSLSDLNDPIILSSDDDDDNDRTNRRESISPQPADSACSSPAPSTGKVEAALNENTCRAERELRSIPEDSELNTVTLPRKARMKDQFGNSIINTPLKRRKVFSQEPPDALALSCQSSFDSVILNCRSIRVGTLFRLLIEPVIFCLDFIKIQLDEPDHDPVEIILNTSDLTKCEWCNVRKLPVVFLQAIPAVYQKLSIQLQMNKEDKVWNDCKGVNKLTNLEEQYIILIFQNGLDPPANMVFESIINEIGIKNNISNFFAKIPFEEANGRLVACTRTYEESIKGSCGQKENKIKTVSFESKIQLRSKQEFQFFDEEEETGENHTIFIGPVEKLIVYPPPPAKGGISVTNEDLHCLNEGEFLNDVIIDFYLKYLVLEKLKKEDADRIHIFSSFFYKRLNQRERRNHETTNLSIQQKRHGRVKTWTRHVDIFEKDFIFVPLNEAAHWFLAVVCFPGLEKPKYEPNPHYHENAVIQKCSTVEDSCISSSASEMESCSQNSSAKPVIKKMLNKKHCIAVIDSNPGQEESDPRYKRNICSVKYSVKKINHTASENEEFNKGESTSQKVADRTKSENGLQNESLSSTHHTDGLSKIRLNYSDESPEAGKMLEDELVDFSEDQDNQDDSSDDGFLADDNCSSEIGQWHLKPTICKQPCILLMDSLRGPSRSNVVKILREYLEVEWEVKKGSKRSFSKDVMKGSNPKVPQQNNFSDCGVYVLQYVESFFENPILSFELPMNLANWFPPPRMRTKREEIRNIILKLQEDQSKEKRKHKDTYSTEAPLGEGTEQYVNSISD

[10] = nonselective StAR promoter luciferase inhibitors – cell-based, luminescence, luciferase reporter, counter-screen for LRH-1 inverse agonist project, dose response (AID 651969); format: functional
Caspase-3 = biological target: T4, Caspase-3 (Homo sapiens, UniProt P42574); format: functional;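 also: Dose-response selectivity test against caspase-3 for candidate inhibitors of sentrin-specific proteases (SENPs)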
T4 sequence (P42574 whole entry): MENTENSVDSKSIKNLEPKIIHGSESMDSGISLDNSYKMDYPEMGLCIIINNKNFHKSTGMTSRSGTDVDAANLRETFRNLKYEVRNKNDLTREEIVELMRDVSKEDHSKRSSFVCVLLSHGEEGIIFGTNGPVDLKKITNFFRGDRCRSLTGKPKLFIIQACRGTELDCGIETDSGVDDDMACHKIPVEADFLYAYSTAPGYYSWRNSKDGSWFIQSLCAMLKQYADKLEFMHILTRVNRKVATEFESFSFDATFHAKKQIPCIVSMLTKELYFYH

HEK293 [11] = test: cells; format: functional, cell-based; details: Homo sapiens; remark: listed apart in the source
BJ [12] = test: cells; format: functional, cell-based; details: Homo sapiens
[13] = biological target: Nucleotide-binding oligomerization domain-containing protein 2 (Homo sapiens, UniProt Q9HC29); test: inhibition of NOD2-driven NF-kB reporter – cell-based, luminescence, uHTS, HEK293 (AID 1566); format: functional
Chain of Nucleotide-binding oligomerization domain-containing protein 2 (Q9HC29 whole entry, the tested form may be a part): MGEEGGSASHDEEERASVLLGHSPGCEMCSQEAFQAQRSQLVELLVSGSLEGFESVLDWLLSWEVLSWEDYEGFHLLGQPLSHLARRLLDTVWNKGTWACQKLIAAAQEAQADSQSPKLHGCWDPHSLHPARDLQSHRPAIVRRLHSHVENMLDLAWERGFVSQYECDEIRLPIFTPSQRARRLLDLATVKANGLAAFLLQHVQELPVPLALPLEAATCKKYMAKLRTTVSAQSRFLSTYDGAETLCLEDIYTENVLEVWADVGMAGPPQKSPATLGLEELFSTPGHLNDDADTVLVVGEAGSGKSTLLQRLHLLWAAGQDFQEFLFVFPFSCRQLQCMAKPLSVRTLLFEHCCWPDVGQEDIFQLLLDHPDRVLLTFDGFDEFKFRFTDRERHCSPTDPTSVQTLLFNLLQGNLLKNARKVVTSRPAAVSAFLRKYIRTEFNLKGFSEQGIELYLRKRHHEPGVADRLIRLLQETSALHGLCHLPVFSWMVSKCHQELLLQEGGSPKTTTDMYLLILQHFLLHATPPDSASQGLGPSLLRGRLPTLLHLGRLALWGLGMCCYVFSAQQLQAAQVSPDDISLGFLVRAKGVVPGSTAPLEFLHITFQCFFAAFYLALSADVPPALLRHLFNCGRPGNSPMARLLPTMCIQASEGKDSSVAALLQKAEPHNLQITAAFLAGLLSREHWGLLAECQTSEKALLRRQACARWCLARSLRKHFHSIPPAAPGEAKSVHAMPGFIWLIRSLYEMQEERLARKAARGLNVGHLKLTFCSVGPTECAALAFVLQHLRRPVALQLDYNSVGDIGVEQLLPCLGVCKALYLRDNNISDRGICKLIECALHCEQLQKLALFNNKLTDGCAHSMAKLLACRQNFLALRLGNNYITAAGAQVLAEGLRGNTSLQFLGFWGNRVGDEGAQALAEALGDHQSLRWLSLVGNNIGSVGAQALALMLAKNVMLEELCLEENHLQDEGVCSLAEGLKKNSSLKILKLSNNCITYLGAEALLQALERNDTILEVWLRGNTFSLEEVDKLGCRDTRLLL

[14] = biological target: T5, Replicative DNA helicase DnaB (Mycobacterium tuberculosis, UniProt P9WMR3); test: DnaB intein splicing inhibitors, dose response, biochemical, cell-free fluorescence (AID 449749); format: functional
T5 sequence (P9WMR3 whole entry): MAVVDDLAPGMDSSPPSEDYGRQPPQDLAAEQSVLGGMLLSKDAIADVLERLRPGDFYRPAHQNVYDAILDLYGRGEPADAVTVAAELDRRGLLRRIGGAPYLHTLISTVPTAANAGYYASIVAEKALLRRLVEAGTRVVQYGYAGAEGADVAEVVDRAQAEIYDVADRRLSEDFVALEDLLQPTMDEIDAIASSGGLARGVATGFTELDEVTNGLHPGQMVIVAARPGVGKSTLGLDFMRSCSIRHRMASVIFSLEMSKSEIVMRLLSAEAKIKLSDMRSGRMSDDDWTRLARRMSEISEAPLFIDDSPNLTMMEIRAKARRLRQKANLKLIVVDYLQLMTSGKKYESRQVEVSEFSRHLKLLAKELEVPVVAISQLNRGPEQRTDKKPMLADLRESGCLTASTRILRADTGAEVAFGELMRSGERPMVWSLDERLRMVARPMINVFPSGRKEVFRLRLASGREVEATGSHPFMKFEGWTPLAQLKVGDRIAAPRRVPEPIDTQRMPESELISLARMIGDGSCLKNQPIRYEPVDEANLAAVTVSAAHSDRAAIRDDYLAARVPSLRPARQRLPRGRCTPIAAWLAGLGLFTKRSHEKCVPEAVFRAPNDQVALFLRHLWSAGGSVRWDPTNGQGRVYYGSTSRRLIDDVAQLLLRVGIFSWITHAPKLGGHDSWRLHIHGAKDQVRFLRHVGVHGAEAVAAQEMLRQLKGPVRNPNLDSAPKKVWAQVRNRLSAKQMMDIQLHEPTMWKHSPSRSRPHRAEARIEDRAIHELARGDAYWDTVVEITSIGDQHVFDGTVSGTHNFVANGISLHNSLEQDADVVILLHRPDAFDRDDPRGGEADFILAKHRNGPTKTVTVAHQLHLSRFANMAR

BJ [15] = test: BJ-TERT-LT-ST fibroblast viability loss – cell-based, RAS-independent, luminescence, dose response (AID 1935); format: functional; details: Homo sapiens;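 also: BJ fibroblasts immortalized with TERT plus LT and ST oncogenes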
[16] = DRD fibroblast viability loss – cell-based, non-viral oncogenic, luminescence, dose response (AID 1934); format: functional; details: Homo sapiens
BJ [17] = test: BJ-TERT fibroblast viability loss – cell-based, RAS-independent, luminescence, dose response (AID 1933); format: functional; details: Homo sapiens
Protein RecA = biological target: T6, Protein RecA (Mycobacterium tuberculosis, UniProt P9WHJ3); test: Fluorescence Cell-Free Homogeneous Dose Retest to Identify Inhibitors of RecA-Intein Splicing Activity. [Related pubchem assays (depositor defined):AID2097, AID2223, AID489010, AID492950]; format: functional
T6 sequence (P9WHJ3 whole entry): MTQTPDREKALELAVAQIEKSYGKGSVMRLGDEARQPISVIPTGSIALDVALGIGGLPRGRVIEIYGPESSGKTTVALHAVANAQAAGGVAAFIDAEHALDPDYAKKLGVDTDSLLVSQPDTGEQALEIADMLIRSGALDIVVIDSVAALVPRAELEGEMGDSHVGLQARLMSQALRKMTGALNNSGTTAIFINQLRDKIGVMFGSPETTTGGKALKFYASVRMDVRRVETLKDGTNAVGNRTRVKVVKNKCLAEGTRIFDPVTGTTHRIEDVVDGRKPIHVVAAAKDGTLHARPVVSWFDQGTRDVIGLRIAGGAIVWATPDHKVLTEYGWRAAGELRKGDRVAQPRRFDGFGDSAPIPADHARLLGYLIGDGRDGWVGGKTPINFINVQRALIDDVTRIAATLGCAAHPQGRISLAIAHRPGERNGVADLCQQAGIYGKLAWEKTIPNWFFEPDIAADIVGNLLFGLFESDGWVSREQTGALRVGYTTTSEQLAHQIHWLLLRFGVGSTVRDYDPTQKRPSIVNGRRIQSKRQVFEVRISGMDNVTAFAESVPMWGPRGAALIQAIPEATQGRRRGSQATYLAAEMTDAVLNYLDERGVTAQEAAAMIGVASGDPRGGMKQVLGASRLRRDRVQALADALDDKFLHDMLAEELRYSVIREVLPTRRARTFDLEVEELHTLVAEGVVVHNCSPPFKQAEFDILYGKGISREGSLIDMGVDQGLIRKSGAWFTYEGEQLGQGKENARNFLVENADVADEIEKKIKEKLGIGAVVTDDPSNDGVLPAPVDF

O=C(Nc1nc2c(Cl)cccc2s1)c1ccc([N+](=O)[O-])o1
IC50 (HEK293 [1]): 7.38 µM (active) | IC50 [2]: 148 nM (active) | IC50 [3]: 17.2 µM (active) | EC50 (HEK293 [4]): 5.52 µM (active) | IC50 (HEK293 [5]): 13.2 µM (inactive) | IC50 (cells): 10.4 µM (active) | IC50 (HEK293 [6]): 18.6 µM (active) | CC50 [7]: 39.3 µM (active) | IC50 [8]: 32.9 µM (active) | IC50 (Steroidogenic factor 1): 443 nM (active) | IC50 [9]: 20.3 µM (active) | IC50 [10]: 35.9 µM (inactive) | IC50 (Caspase-3): 61.8 µM (active)

O=C(CCl)Nc1cc(-c2ccccc2)nn1-c1ccccc1
IC50 (HEK293 [1]): 19.2 µM (active) | IC50 (HEK293 [11]): > 20 µM (inactive) | EC50 (BJ [12]): 9.6 µM (active) | EC50 [13]: > 20 µM (inactive) | EC50 (HEK293 [4]): 4.71 µM (active) | IC50 (HEK293 [5]): 7.21 µM (active) | AC50 [14]: > 380 µM (inactive) | IC50 (HEK293 [6]): 4.63 µM (active) | EC50 (BJ [15]): 5.05 µM (active) | EC50 [16]: 8.91 µM (active) | EC50 (BJ [17]): 5.38 µM (inconclusive) | EC50 (Protein RecA): 5.55 µM (active)

CCOC(=O)c1sc2ccccc2c1OC(=O)c1ccc(C)cc1
IC50 (HEK293 [1]): > 20 µM (inactive) | IC50 (HEK293 [11]): > 20 µM (inactive) | EC50 [13]: 2.22 µM (active) | EC50 (HEK293 [4]): 10.7 µM (active) | IC50 (HEK293 [5]): 6.76 µM (active) | IC50 (HEK293 [6]): 9.53 µM (active)
